Measurements published in patent US12146879B2, “Capacitive biosensor for identifying a microorganism or determining antibiotic susceptibility” (priority 2016, dated 2024).
Values after ≈ are worked out from the molar mass of the structure shown.

What was measured:
E. coli [1] = test: Minimum inhibitory concentration by real-time capacitance of capacitive biosensor; assay type: cell-based; details: E. coli 10^5 cells/ml grown 2 hours at 37° C.
Procedure: To determine the minimum inhibitory concentration of an antibiotic, E. coli (10^5 cells/ml) was treated with a capacitive biosensor and grown at 37° C. for 2 hours, and then treated with antibiotic ceftriaxone (MIC: ˜ 30 ng/ml) at concentrations of 100, 80, 60, 40 and 20 ng/ml, respectively. The degree of susceptibility was determined based on the results of the capacitance monitored in real time, and the minimum inhibitory concentration thereof was confirmed.
(§1) In addition, E. coli (10^5 cells/ml) was treated with a capacitive biosensor and grown at 37° C. for 2 hours, and then treated with antibiotic Gentamicin (MIC: ˜ […]) 50, 5, 0.5, 0.05, and 0.005 μg/ml, respectively. The degree of susceptibility was determined based on the results of the capacitance monitored in real time, and the minimum inhibitory concentration thereof was confirmed.

E. coli [2] = details: reference value given in the method; cited from earlier work
E. coli [3] = test: Susceptibility measurement by type of antibiotic with capacitive biosensor (E. coli-specific aptamer); assay type: cell-based; details: antibiotic 100 ng/ml, 37° C., 6 hours, FIG. 8
Procedure: The susceptibility inspection for antibiotics was performed, after identifying an E. coli using the capacitive biosensor manufactured by treating E. coli-specific aptamer in Experimental Example 2 on the substrate manufactured according to Manufacturing Example 2.
PBS was treated as a control, each treatment was treated with cephalothin, Gentamicin, Ciprofloxacin and chloramphenicol at a concentration of 100 ng/ml, the change in capacitance with time was measured for 6 hours in an incubator at 37° C.

Staphylococcus aureus [4] = test: Minimum inhibitory concentration by real-time capacitance of capacitive biosensor; assay type: cell-based; details: Staphylococcus aureus 10^5 cells/ml grown 2 hours at 37° C.; 50, 5, 0.5, 0.05, 0.005 μg/ml; text prints 'this E. coli'
Procedure: as §1, with “Staphylococcus aureus” for “E. coli”, “then was” for “then”

[5] = system: Ampicillin-resistant E. coli; test: Susceptibility of antibiotic-resistant bacterium by real-time capacitance; assay type: cell-based; details: Tetracycline 2 μg/ml, Gentamicin 1 μg/ml, Ampicillin 8 μg/ml; FIG. 11 (b)
Procedure: (§2) In addition, Tetracycline-resistant E. coli or Ampicillin-resistant E. coli (10^5 cells/ml) was treated with a capacitive biosensor and grown at 37° C. for 2 hours, and was then treated with Tetracycline at a concentration of 2 μg/ml, Gentamicin at a concentration of 1 μg/ml, and Ampicillin at a concentration of 8 μg/ml, respectively. The degree of susceptibility was determined based on the results of the capacitance monitored in real time.

[6] = system: Tetracycline-resistant E. coli; test: as above; assay type: cell-based; details: Tetracycline 2 μg/ml, Gentamicin 1 μg/ml, Ampicillin 8 μg/ml; FIG. 11 (a)
Procedure: as §2

Staphylococcus aureus [7] = details: reference value given in the method; cited from earlier work
E. coli [8] = test: Identification of a microorganism: capacitance change of aptamer-fixed biosensor; assay type: binding; details: about 2 hours, 37° C., FIG. 6
Procedure: (§3) An experiment was conducted to confirm whether a microorganism could be identified using the biosensor produced according to Production Example 2.
(§4) Particularly, each well was treated and fixed with an aptamer specific to E. coli, Acinetobacterbaumannii, Staphylococcus aureus or Enterococcus faecalis, and media (a control group or a control) not containing a microorganism, E. coli, Acinetobacterbaumannii, Staphylococcus aureus or Enterococcus faecalis were treated with a sensor, and then the change in capacitance was measured after about 2 hours in an incubator at 37° C.

other microorganisms = test: as above; assay type: binding; details: about 2 hours, 37° C., FIG. 6
Procedure: as §3, §4

Staphylococcus aureus [9] = test: as above; assay type: binding; details: about 2 hours, 37° C., FIG. 6
Procedure: as §3, §4

For `CO/N=C(\C(=O)N[C@@H]1C(=O)N2C(C(=O)O)=C(CSc3nc(=O)c(=O)[nH]n3C)CS[C@H]12)c1csc(N)n1` [ceftriaxone], the MIC (E. coli [1]; Escherichia coli, 100, 80, 60, 40 and 20 ng/ml, FIG. 9) is listed as 0.04 µg/mL (≈ 0.0721 µM) and the “MIC (stated with the antibiotic)” value (E. coli [2]) is listed as about 0.03 µg/mL.

With `O=C(N[C@H](CO)[C@H](O)c1ccc([N+](=O)[O-])cc1)C(Cl)Cl` [chloramphenicol] the “change in capacitance after the addition of antibiotics” value (from here on “change in capacitance … of antibiotics”) (E. coli [3]) was “increase in capacitance” and the “susceptibility or resistance of the bacterium to the antibiotic” value (shortened to “susceptibility or resistance”) (E. coli [3]) was “resistance (tolerance)”.

With `CC(=O)OCC1=C(C(=O)O)N2C(=O)[C@@H](NC(=O)Cc3cccs3)[C@H]2SC1` [cephalothin] the “change in capacitance … of antibiotics” value (E. coli [3]) was “increase in capacitance” and the “susceptibility or resistance” value (E. coli [3]) was “resistance (tolerance)”.

With `O=C(O)c1cn(C2CC2)c2cc(N3CCNCC3)c(F)cc2c1=O` [Ciprofloxacin] the “change in capacitance … of antibiotics” value (E. coli [3]) was “decrease in capacitance”, the “susceptibility or resistance” value (E. coli [3]) was “susceptibility” and the “susceptibility or resistance” value (E. coli [3]; listed as ciprofloxacin) was “high”.

With Gentamicin the “change in capacitance … of antibiotics” value (E. coli [3]) was “decrease in capacitance”, the “susceptibility or resistance” value (E. coli [3]) was “susceptibility” and the minimum inhibitory concentration (E. coli [1]; 50, 5, 0.5, 0.05, 0.005 μg/ml, FIG. 10) was 0.5 µg/mL. For the same molecule, the minimum inhibitory concentration (Staphylococcus aureus [4]) was 0.5 µg/mL, the “change in capacitance value after antibiotic treatment” value [5] was “decrease in capacitance value” and the “change in capacitance value after antibiotic treatment” value [6] was “decrease in capacitance value”. The MIC (stated with the antibiotic) (E. coli [2]) was 0.5 µg/mL and the MIC (stated with the antibiotic) (Staphylococcus aureus [7]) was 0.5 µg/mL.

B1: E. coli-specific aptamer: E. coli-specific aptamer, SEQ ID NO: 1, Genotech, Daejeon, Korea (nucleic acid)
chain: GCAATGGTACGGTACTTCCCCATGAGTGTTGTGAAATGTTGGGACACTAGGTGGCATAGAGCCGCAAAAGTGCACGCTACTTTGCTAA
modifications: DNA, backbone and methylation of C not given here; deposited on substrate, further chemistry not fully specified
With B1 the “change in capacitance on treatment with E. coli” value (E. coli [8]) was “significantly increased” and the “change in capacitance on treatment with other microorganisms” value (other microorganisms) was “did not occur significantly”.

B2: Staphylococcus aureus-specific aptamer: Staphylococcal aptamer, SEQ ID NO: 3, Genotech, Daejeon, Korea (nucleic acid)
chain: GCAATGGTACGGTACTTCCTCGGCACGTTCTCAGTAGCGCTCGCTGGTCATCCCACAGCTACGTCAAAAGTGCACGCTACTTTGCTAA
modifications: DNA, backbone and methylation of C not given here; deposited on substrate, further chemistry not fully specified
For B2, the “change in capacitance on treatment with Staphylococcus aureus” value (Staphylococcus aureus [9]) was “large capacitance change” and the “change in capacitance on treatment with other microorganisms” value (other microorganisms) was “did not occur significantly”.
